# Laboratory results from PMC4474691, “Leukemia-Associated Mutations in Nucleophosmin Alter Recognition by CRM1: Molecular Basis of Aberrant Transport” (PLoS ONE, 2015).
# Legend:
# CRM1^HA = target: T1, CRM1^HA (Mus musculus, UniProt Q6P5F9, L431A/V430A/V432A); assay: Size exclusion chromatography of NPM / CRM1^HA complex formation; assay type: binding
# T1 construct: His-ZZ (cleaved yes); made in house; host or cells: Escherichia coli BL21-CodonPlus (DE3)
# Description: Chromatography-based binding experiments
# […] Then 100 μL were loaded onto a Superdex 200 10/30 column (GE Healthcare), equilibrated in buffer 20 mM Tris/HCl, pH 7.4, 100 mM NaCl, 5 mM DTT, 2 mM MgCl2. Runs were performed at 15°C and a flow rate of 0.2 mL / min. The eluted fractions were analyzed by SDS-PAGE. TFP-NES/CRM1^HA complex formation was also tested by Ni-NTA chromatography (see Supporting Information).
# Fig 3 Native-like properties of CRM1^HA “high affinity” mutant and formation of complexes between this CRM1 variant and AML-related NPM mutants. (A) Circular dichroism thermal denaturation profiles of wild type CRM1 and CRM1^HA, followed by ellipticity at 222 nm as a function of temperature. […] When evaluating the relative amounts of the complex and free NPM, one should take into account that absorbance at 280 nm is lower for the mutants (especially NPMmutA) than for wild type NPM, since wild type NPM contains two Trp residues per subunit, NPMmutE one, and NPMmutA none. […] They are detected in the fractions containing the complex probably due to formation of mixed oligomers with the full length species and/or incomplete resolution from free NPM. […]
# HeLa cells = assay: In vivo nuclear export assay, Rev(1.4)-GFP; assay type: cell-based; settings: Rev(1.4)-NPMcNES-GFP in HeLa cells, actinomycin D, >200 cells per sample
# From the text: The clone of Myc3 tagged human NPM in pCDNA3.1 for eukaryotic expression was kindly provided by Dr. Yanping Zhang (University of Texas). From this clone, we used PCR to generate the AML-associated mutants A and E [27], by incorporating the mutations in the 3´oligonucleotide. The three NPM variants (wild type, A and E) were subcloned as YFP-NPM fusions into pEYFP-C1. The plasmid encoding YFP-CRM1 has been previously described, and pEYFP-C1 was used as its corresponding negative control. As a positive control in cell localization assays, a previously described plasmid encoding Flag-tagged Survivin fused to a heterologous NLS (“SurvNLS”) was used. To test the export activity of a novel putative NES in the C-terminal domain of wild type NPM, a DNA fragment encoding residues 264–282 was cloned into the plasmid Rev (1.4)-GFP (a gift of Dr. Beric Henderson, University of Sydney), as previously described.
# The export activity of a novel putative NES in the C-terminal domain of NPM was tested using an established in vivo nuclear export assay in HeLa cells (see Supporting Information for further experimental details).
# Supplementary file pone.0130610.s001.tif: S1 Fig A novel candidate NES (cNES) in NPM is not active in a nuclear export assay. […] Fluorescence microscopy images in panel B show the localization of the different proteins. […] More than 200 cells were counted per sample. […]
# Myc-NPM in HEK293T cells = assay: Localization of Myc-NPM in HEK293T cells; assay type: cell-based, human; settings: YFP-CRM1 co-expression, hydroxyurea 4 mM 24 h (increase from 20%)
# Description: (§1) Cell culture, transfection, treatment and imaging
# (§2) Human embryonic kidney 293T (HEK293T) and HeLa cells (ECACC) were grown in Dulbecco’s modified Eagle’s medium, supplemented with 10% fetal bovine serum, 100 units/ml penicillin and 100 μg/ml streptomycin (all from Invitrogen). The cells were seeded onto sterile glass coverslips in 12-well trays 24 h before transfection. Transfections were carried out with XtremeGENE 9 (Roche) following the manufacturer’s protocol. Treatment of cells with the different drugs was done at the indicated final concentrations and time periods: Actinomycin D (ActD, Sigma) at 5 μg / mL for 3 h, and hydroxyurea (HU, Sigma) at 4 mM for 24 h.
# Cells were fixed, either 20 or 42 h after transfection, with 3.7% formaldehyde in PBS for 30 min, then treated with 0.2% Triton X-100 in PBS for 10 min, for membrane permeabilization and incubated for 1 h in blocking solution (3% BSA in PBS). In YFP-CRM1 overexpression experiments, endogenous NPM was detected with anti-B23 (Santa Cruz Biotechnology FC82291, dilution 1:800), Myc3-NPM with anti-Myc (Cell Signalling 2276, dilution 1:2000) and Flag-SurvNLS with anti-Flag (Sigma F1704, dilution 1:300). Primary antibodies were diluted in blocking solution. In all cases, the secondary antibody was Alexa Fluor 594 anti-mouse (Invitrogen A11005, dilution 1:400). […] Slides were examined using a Zeiss Axioskop fluorescence microscope. […]
# [1] = tested on: endogenous NPM in HEK293T cells; assay: Localization of endogenous NPM in HEK293T cells; assay type: cell-based, human; settings: hydroxyurea 4 mM 24 h (data not shown)
# Description: as §1, §2
# Cells were fixed, either 20 or 42 h after transfection, with 3.7% formaldehyde in PBS for 30 min, then treated with 0.2% Triton X-100 in PBS for 10 min, for membrane permeabilization and incubated for 1 h in blocking solution (3% BSA in PBS). In YFP-CRM1 overexpression experiments, endogenous NPM was detected with anti-B23 (Santa Cruz Biotechnology FC82291, dilution 1:800), Myc3-NPM with anti-Myc (Cell Signalling 2276, dilution 1:2000) and Flag-SurvNLS with anti-Flag (Sigma F1704, dilution 1:300). Primary antibodies were diluted in blocking solution. In all cases, the secondary antibody was Alexa Fluor 594 anti-mouse (Invitrogen A11005, dilution 1:400). Washing between the different steps were carried out with PBS. […] Slides were examined using a Zeiss Axioskop fluorescence microscope. For quantification, at least 200 cells were “blind counted” and classified as having nuclear (or nucleolar), nuclear/cytoplasmic or cytoplasmic localization of NPM (or the Flag-SurvNLS control). […]
# Fig 2 Localization of endogenous and ectopically expressed NPM and effect of treatment with actinomycin D (ActD) and CRM1 overexpression in HEK293T cells. […] Green denotes YFP (Y) or YFP-CRM1 (YC) fluorescence; red, immunostaining of endogenous NPM; and blue, DAPI fluorescence. […] More than 200 cells were “blind” counted. […] (D) Quantification of cytoplasmic (C) or nuclear and cytoplasmic (N/C) localization of overexpressed Flag-SurvNLS and Myc-NPM. […]
# T1 sequence (Q6P5F9 1-1062 V430A/L431A/V432A limits assumed): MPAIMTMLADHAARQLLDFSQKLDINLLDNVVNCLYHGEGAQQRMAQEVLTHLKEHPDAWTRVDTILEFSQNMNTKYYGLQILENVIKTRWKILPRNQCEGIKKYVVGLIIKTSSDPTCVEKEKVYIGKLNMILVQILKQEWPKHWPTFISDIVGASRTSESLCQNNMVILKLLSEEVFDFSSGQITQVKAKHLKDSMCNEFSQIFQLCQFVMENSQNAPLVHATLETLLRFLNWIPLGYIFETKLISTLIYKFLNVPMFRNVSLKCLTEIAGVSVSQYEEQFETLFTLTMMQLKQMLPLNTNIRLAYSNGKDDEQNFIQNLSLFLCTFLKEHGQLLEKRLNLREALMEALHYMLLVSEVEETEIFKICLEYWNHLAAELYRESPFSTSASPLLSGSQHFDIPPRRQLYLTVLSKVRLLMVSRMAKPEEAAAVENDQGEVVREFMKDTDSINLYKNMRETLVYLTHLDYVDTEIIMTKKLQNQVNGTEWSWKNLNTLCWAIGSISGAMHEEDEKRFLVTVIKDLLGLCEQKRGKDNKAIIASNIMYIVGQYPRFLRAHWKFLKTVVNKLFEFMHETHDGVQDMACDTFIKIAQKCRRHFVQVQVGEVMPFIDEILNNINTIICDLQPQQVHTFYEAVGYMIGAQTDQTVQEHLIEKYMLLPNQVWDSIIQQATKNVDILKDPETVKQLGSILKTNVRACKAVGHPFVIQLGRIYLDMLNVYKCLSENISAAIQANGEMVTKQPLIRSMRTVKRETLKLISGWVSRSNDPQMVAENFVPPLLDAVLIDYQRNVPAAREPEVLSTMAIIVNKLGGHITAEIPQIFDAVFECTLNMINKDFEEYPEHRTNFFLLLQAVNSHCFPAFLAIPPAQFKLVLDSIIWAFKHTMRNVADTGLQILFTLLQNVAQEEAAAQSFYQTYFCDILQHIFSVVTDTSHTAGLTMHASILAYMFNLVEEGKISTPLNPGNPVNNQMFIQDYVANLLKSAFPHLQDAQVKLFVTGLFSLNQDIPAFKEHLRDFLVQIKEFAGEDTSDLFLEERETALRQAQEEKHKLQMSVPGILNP
compound,measurement,setting,value
"wild type NPM: nucleophosmin, pentameric nucleolar protein",complex formation with CRM1^HA,"CRM1^HA; SEC Superdex 200, 20 μM (pentamer) NPM + 40 μM CRM1^HA, 30 min room temperature, run at 15°C, 20 mM Tris/HCl pH 7.4, 100 mM NaCl, mutant preparations partly C-terminally degraded",did not result in any complex stable enough as to be detected by SEC
same,complex formation with CRM1^HA,"CRM1^HA; SEC, 40 μM NPM + 140 μM CRM1^HA (data not shown)",failed to produce any detectable complex
"VEAKFINYVKNCFRMTDQE [NPM cNES, candidate NES in C-terminal domain of NPM, tested as Rev(1.4)-GFP fusion]",nuclear export activity,HeLa cells,not functional as a nuclear export signal
same,nuclear export activity,HeLa cells; listed as 268-FINYVKNCFRM-278,inactive
"NC(=O)NO [HU, hydroxyurea]","cells with cytoplasmic relocation of Myc-NPM, YFP-CRM1 co-expression with HU",Myc-NPM in HEK293T cells,50%
same,effect of HU on endogenous NPM localization,[1],could not be observed on endogenous NPM
